2 compounds from patent US20120329770A1, “CEPHALOSPORIN DERIVATIVES USEFUL AS BETA-LACTAMASE INHIBITORS AND COMPOSITIONS AND METHODS OF USE THEREOF” (priority 2010, published 2012) can be followed below.

Molecules are shown by their SMILES.

The target of assay [1] is class B β-lactamase NDM-1 (Klebsiella pneumoniae, UniProt C7C422). The assay is described as follows: Inhibition of β-lactamases, nitrocefin hydrolysis. The class given is biochemical. As to conditions: 15 μM nitrocefin.
In assay [2] the target is class D β-lactamase OXA-45 (Pseudomonas aeruginosa, UniProt Q7WZC7). In words: Inhibition of β-lactamases, nitrocefin hydrolysis. The class given is biochemical. Here is the method: OXA-45 β-lactamase was purified in the laboratory of Prof. T. Walsh (University of Bristol, UK) according to the method published (Toleman, M. A.; Rolston, K.; Jones, R. N.; Walsh, T. R. Antimicrob. Agents Chemother. 2003, 47, 2859-2863) and provided to this laboratory as a kind gift.
Chain of class D β-lactamase OXA-45 (Q7WZC7 entry or part of it): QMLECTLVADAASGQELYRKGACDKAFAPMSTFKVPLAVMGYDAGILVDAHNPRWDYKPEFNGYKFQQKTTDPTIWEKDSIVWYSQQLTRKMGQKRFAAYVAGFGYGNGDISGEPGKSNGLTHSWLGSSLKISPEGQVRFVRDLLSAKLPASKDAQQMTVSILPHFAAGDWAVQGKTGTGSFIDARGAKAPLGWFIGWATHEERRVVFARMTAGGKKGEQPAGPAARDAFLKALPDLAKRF
(§1) Assay conditions for IC50 determinations involved enzyme concentrations ranging between 2 and 6 nM. The concentration used for the nitrocefin substrate was 100 μM. Assays with OXA-10 and OXA-45 were conducted at pH 7.0 with 100 mM sodium phosphate buffer containing 25 mM sodium bicarbonate. Assays with KPC-2 and GC1 were performed at pH 7.0 in 50 mM HEPES buffer and assays with IMP-1 and VIM-2 were performed in the same buffer with the addition of 500 mM NaCl and 1 μM ZnSO4. BSA was used with all enzymes (except OXA-10 and KPC-2) at concentrations of 0.5-1.0 μg/mL.
(§2) Inhibitors were pre-incubated for 10 minutes at room temperature with enzyme assay solutions prior to the addition of the nitrocefin. These compounds were dissolved in DMSO and prepared at various concentrations such that the final concentration of DMSO was 1% during the pre-incubation. The reaction was initiated by the addition of the pre-incubated enzyme-cyclobutanone solution (90 μL) to a solution of nitrocefin in buffer (10 μL). Enzymatic activity was determined using the initial rate of increase in absorbance at 482 nm

For assay [3], the target named is T1, VIM-2 metallo-β-lactamase (Pseudomonas aeruginosa, UniProt Q9K2N0).
T1 construct: made in house; host or cells: Escherichia coli BL21 (DE3) pLysS carrying pNOR2001
The assay is described as follows: Inhibition of β-lactamases, nitrocefin hydrolysis. As to conditions: nitrocefin 100 μM, 10 min pre-incubation; read-out: IC50 VIM-2 (Class B). The class given is biochemical. How it is done: VIM-2 metallo-β-lactamase was expressed in Escherichia coli BL21 (DE3) pLysS carrying pNOR2001 (a generous gift from P. Nordmann, Université Paris XI, France) and purified as reported by Poirel et al. (Antimicrob. Agents Chemother. 2000, 44, 891-897). The homogeneity and molecular weight of the mature VIM-2 (29.7 kDa) was determined by SDS-PAGE (Laemmli, U. K. Nature 1970, 227, 680-685). Enzyme concentration was determined from the absorbance at 280 nm (εEM=32,000 M^−1 cm^−1).
as §1
(§3) Inhibitors were pre-incubated for 10 minutes at room temperature with enzyme assay solutions prior to the addition of the nitrocefin. […] Enzymatic activity was determined using the initial rate of increase in absorbance at 482 nm

The target in another assay is T2, class C β-lactamase GC1 (Enterobacter cloacae, UniProt Q59401).
T2 construct: made in house; host or cells: Escherichia coli AS226-51 harbouring pCS100
T2 sequence (Q59401 entry or part of it): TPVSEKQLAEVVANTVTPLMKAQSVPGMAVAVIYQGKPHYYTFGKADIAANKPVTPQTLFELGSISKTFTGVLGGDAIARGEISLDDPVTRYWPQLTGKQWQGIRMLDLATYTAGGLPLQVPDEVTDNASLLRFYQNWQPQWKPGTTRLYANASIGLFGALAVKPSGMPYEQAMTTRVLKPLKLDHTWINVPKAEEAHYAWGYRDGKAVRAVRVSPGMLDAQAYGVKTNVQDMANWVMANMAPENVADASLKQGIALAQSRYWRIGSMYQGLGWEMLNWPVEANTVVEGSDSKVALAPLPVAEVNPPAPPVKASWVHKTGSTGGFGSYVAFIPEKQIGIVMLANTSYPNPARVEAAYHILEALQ
In words: Inhibition of β-lactamases, nitrocefin hydrolysis. The class given is biochemical. The settings on record: nitrocefin 100 μM, 10 min pre-incubation. Here is the method: GC1 β-lactamase was purified from Escherichia coli AS226-51 harbouring pCS100, which was a generous gift from Prof. M. Nukaga (Josai International University, Japan). The cell culture was harvested and subjected to a stringent periplasmic lysis protocol according to Crichlow et al. (Biochemistry 1999, 38, 10256-10261.). Purification proceeded similarly to Nukaga et al. (J. Biol. Chem. 2004, 279, 9344-9352.) with cation exchange chromatography (CM Sephadex C-50) equilibrated with 10 mM sodium phosphate buffer (pH 6), followed by elution with a stepwise gradient of increasing NaCl concentration. Fractions containing β-lactamase activity were then applied to a phenylboronate column (MoBiTec, Germany), equilibrated with 20 mM triethanolamine.HCl, pH 7.0, 0.5 M NaCl. The column was washed with the same buffer and then eluted with sterile 0.5 M borate buffer, pH 7.0, 0.5 M NaCl. Active fractions eluted from the phenylboronate column were analyzed for purity via SDS-PAGE, pooled, and concentrated before buffer exchange to 100 mM sodium phosphate, pH 7.0.
(§4) Assay conditions for IC50 determinations involved enzyme concentrations ranging between 2 and 6 nM. […]
as §3

Assay [4] addresses T3, class A β-lactamase KPC-2 (Klebsiella pneumoniae, UniProt Q9F663).
T3 construct: calculated for a mature protein with a 24 amino acid signal peptide removed; made in house; host or cells: Escherichia coli DH5α (pBR322-catI-blaKPC-2)
The assay is described as follows: Inhibition of β-lactamases, nitrocefin hydrolysis. The class given is biochemical. As to conditions: nitrocefin 100 μM, 10 min pre-incubation. Here is the method: The KPC-2 β-lactamase was purified from Escherichia coli DH5α strain containing the plasmid, pBR322-catI-blaKPC-2, which was kindly provided by Prof. F. van den Akker (Case Western Reserve University). Expression and purification of the enzyme was similar to that reported by Ke et al. (Biochemistry 2007, 46, 5732-5740). A molecular weight of 28,472 Da for the purified KPC-2 was determined by ESI MS. This is in close agreement with that calculated for a mature protein with a 24 amino acid signal peptide removed.
as §1, §3

For assay [5], the target named is T4, class D β-lactamase OXA-10 (Pseudomonas aeruginosa, UniProt P14489).
T4 construct: indicating a post-translational deletion of a 20 amino acid signal peptide; made in house; host or cells: Escherichia coli BL21 (DE3), pET24a-blaOXA-10, purified from culture supernatant
T4 sequence (P14489 20-266): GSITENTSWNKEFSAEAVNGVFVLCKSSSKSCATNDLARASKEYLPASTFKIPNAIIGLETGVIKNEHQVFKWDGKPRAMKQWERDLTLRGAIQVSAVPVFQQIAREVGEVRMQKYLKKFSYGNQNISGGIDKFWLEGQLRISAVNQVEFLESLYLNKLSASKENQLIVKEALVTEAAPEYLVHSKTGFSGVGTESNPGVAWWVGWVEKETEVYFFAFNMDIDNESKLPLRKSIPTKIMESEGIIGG
In words: Inhibition of β-lactamases, nitrocefin hydrolysis. The class given is biochemical.
Source text: OXA-10 β-lactamase was expressed and purified using a modified protocol of that reported by Golemi et al. (J. Am. Chem. Soc. 2000, 122, 6132-6133). The pET24a plasmid with the blaOXA-10 gene insert, a kind gift from Prof. S. Mobashery (Notre Dame University), was transformed into Escherichia coli BL21 (DE3) and induced with IPTG. Purification of the enzyme was achieved by the addition of ammonium sulfate to the induced culture supernatant. The protein precipitate collected (50-70% ammonium sulfate saturation) was dissolved and dialyzed against 10 mM Tris.SO4 buffer, pH 7.5, and further purified with a DE52 cellulose column (Whatman, UK) equilibrated with the same buffer. The material bound to the column was washed with 10 mM Tris.SO4 buffer, pH 7.5, followed by an elution with a K2SO4 gradient (0-100 mM). Protein fractions containing nitrocefin-hydrolyzing activity were concentrated and purity analyzed by SDS-PAGE. A molecular weight of 27,490 Da for OXA-10 was determined by ESI MS, indicating a post-translational deletion of a 20 amino acid signal peptide.
as §4, §3

The target in assay [6] is T5, IMP-1 metallo-β-lactamase (Serratia marcescens, UniProt P52699).
T5 construct: made in house; host or cells: Escherichia coli BL21(DE3) carrying pCIP4
T5 sequence (P52699 19-246, looked up): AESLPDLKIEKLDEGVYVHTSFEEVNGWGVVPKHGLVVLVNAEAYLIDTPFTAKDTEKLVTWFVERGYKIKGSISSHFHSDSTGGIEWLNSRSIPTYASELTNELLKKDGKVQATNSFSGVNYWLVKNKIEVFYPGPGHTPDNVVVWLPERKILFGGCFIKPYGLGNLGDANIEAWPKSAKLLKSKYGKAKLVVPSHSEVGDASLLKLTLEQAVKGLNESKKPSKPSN
In words: Inhibition of β-lactamases, nitrocefin hydrolysis. The class given is biochemical.
Source text: IMP-1 metallo-β-lactamase was expressed in Esherichia coli BL21(DE3) carrying pCIP4 and purified as reported by Laraki et al. (Antimicrob. Agents Chemother. 1999, 43, 902-906). The homogeneity of the protein was confirmed by SDS-PAGE according to the method of Laemmli (Nature 1970, 227, 680-685). The molecular weight of purified IMP-1, Mr=25,112±0.5 Da, as determined by ESI-MS, was in agreement with that deduced from its amino acid sequence (Laraki et al. Antimicrob. Agents Chemother. 1999, 43, 890-901).
as §1, §2

The target of the next assay is T6, IMP-1 (Serratia marcescens, UniProt P52699).
T6 construct: made in house; host or cells: Escherichia coli BL21(DE3) carrying pCIP4
T6 sequence (P52699 19-246 limits assumed): as the sequence (P52699 19-246, looked up) above
The assay is described as follows: Sensitivity of IMP-1 to proteolysis by trypsin after incubation with inhibitor. The class given is biochemical. As to conditions: incubation of IMP-1 with inhibitor.

Assay [7] relates to Pseudomonas aeruginosa IS 5563. The assay is described as follows: Antimicrobial MIC / checkerboard assay for synergy with meropenem. The class given is cell-based. As to conditions: P. aeruginosa IS 5563; meropenem + compound, checkerboard. How it is done: (§5) Assays were conducted as described by Weigand et al. (Weigand, I.; Hilpert, K.; Hancock, R. E. Nat. Protocols 2008, 3, 163-175).
(§6) To determine the lowest concentration of an antimicrobial agent that inhibits visible growth of a microorganism, 50 μL of compound solution and 50 μL of buffer solution were added to each well at the desired concentration(s) (i.e. 4×the final concentration) as well as a zero control. Stock solutions of 10 mg/mL, were prepared in DMSO, followed by two-fold serial dilutions in Müeller-Hinton media and 100 μL of bacteria (ca. 5×10^5 CFU/mL) was added to each well. Plate counts were performed on the control wells to determine bacterial innoculum level. The innoculum was prepared by taking an overnight culture in Müeller-Hinton media and diluting to McFarland's 0.5 standard, and diluting a further 1:100 prior to addition to the plate. Lanes with no bacteria added served as sterility controls and lanes with no compound served as growth controls. Organisms were allowed to grow overnight at 37° C. in a humid environment and the plates were monitored at 625 nm for growth. MIC was determined to be the last well with no growth.
(§7) In the checkerboard assay one compound is serially diluted along the ordinate, and the second compound is serially diluted along the abscissa. […] A 50 μL aliquot of the compound was added to each well at the desired concentration(s) (i.e. 4×the final concentration) as well as a zero control. Stock solutions of 10 mg/mL of compound were prepared in DMSO, followed by two-fold serial dilutions in Müeller-Hinton media. Finally, 100 μL of bacteria (ca. 5×10^5 CFU/mL) was added to each well. Plate counts were performed on the control wells. Innoculum was prepared by taking an overnight culture in Müeller-Hinton media and diluting to McFarland's 0.5 standard, and diluting a further 1:100 prior to addition to the plate. […] The final volume in each well was 200 μL. The plates were allowed to grow overnight at 37° C. in a humid environment and were monitored at 625 nm for growth. […] Sterility controls and growth controls were included on each plate. The fractional inhibitory concentration (FIC) was determined as follows:
(§8) Results were interpreted in the following way: Synergistic if FIC≦0.5; Additive if […]; Indifferent if […]; Antagonistic if FIC≧2.0.

Assay [8] deals with Stenotrophomonas maltophilia IS 5568. Described as above. The class given is cell-based. The settings on record: S. maltophilia IS 5568; meropenem + compound, checkerboard. Here is the method: as §5, §6, §7, §8
The test system of a further assay is β-lactamases. The assay is described as follows: β-Lactamase inhibition, result in words. The class given is biochemical. An excerpt: In preferred embodiments, the compounds incorporate a good leaving group at the C3′ carbon that can be readily expelled as an anion. In some embodiments, the leaving group is a C3′-benzoylthio group, which may be substituted or unsubstituted, according to the definitions provided above for substituted or unsubstituted.
This effect correlates with the expected better leaving group ability of the benzoylthio group in the hydrolysis product versus the benzoate group in the comparative compound.

The test system of assay [9] is Pseudomonas aeruginosa C-10. In words: Antimicrobial MIC / checkerboard assay for synergy with meropenem. The class given is cell-based. The settings on record: P. aeruginosa C-10; meropenem + compound, checkerboard. Here is the method: as §5, §6
(§9) In the checkerboard assay one compound is serially diluted along the ordinate, and the second compound is serially diluted along the abscissa. […] A 50 μL aliquot of the compound was added to each well at the desired concentration(s) (i.e. 4×the final concentration) as well as a zero control. Stock solutions of 10 mg/mL of compound were prepared in DMSO, followed by two-fold serial dilutions in Müeller-Hinton media. Finally, 100 μL of bacteria (ca. 5×10^5 CFU/mL) was added to each well. Plate counts were performed on the control wells. Innoculum was prepared by taking an overnight culture in Müeller-Hinton media and diluting to McFarland's 0.5 standard, and diluting a further 1:100 prior to addition to the plate. Lanes with no bacteria added served as sterility controls and lanes with no meropenem or compound served as growth controls. The final volume in each well was 200 μL. The plates were allowed to grow overnight at 37° C. in a humid environment and were monitored at 625 nm for growth. […] Sterility controls and growth controls were included on each plate. The fractional inhibitory concentration (FIC) was determined as follows:
as §8

The subject of assay [10] is Stenotrophomonas maltophilia IS 6069. Described as above. The class given is cell-based. As to conditions: S. maltophilia IS 6069, meropenem + compound. How it is done:
as §5, §6, §9, §8

Assay [11] concerns Pseudomonas aeruginosa IS 6225. Described as above. The class given is cell-based. The settings on record: P. aeruginosa IS 6225, meropenem + compound. Here is the method:
as §5, §6, §9, §8

For assay [12], the system named is Stenotrophomonas maltophilia IS 6081. The assay is described as above. The settings on record: S. maltophilia IS 6081, meropenem + compound. The class given is cell-based. Here is the method: as §5, §6, §9, §8
The test system of assay [13] is Chryseobacterium meningosepticum IS 5824. The description is as above. As to conditions: C. meningosepticum IS 5824; meropenem + compound, checkerboard. The class given is cell-based. How it is done:
as §5, §6, §9, §8

Chain of class B β-lactamase NDM-1 (C7C422 29-270, looked up): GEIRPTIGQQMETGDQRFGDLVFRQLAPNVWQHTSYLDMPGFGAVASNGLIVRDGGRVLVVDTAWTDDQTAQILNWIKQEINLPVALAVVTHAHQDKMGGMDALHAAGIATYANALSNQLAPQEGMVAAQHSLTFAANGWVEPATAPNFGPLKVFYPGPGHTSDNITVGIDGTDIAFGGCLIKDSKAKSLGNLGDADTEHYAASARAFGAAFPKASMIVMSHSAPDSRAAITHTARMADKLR
T3 sequence (Q9F663 25-293, looked up): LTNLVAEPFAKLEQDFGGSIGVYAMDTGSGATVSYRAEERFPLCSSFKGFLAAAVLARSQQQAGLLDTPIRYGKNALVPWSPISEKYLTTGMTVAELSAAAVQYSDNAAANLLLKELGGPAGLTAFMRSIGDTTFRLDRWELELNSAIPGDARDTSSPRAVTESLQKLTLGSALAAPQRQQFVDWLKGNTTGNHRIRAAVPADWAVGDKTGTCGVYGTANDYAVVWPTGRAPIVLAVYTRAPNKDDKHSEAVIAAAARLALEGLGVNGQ

The IC50 is the concentration needed to halve the response being measured. For `O=C(Cc1cccs1)N[C@@H]1C(=O)N2C(C(=O)O)=C(CSC(=O)c3ccccc3)CS[C@H]12` [drawing 27], the IC50 in [1] was 33 µM; in [2] it was 24 µM; in [3] it was 1.8 µM; against class C β-lactamase GC1 it was 140 µM; in assay [4], 71 µM; in assay [5], 8.1 µM. Besides, the IC50 in [6] was 3.1 µM.
With `O=C(Cc1cccs1)N[C@@H]1C(=O)N2C(C(=O)O)=C(CSC(=O)c3ccccc3)CS[C@H]12` [CMPD A, (6R,7R)-3-(benzoylthiomethyl)-8-oxo-7-(2-(thiophen-2-yl)acetamido)-5-thia-1-azabicyclo[4.2.0]oct-2-ene-2-carboxylic acid], the “effect on sensitivity of IMP-1 to proteolysis by trypsin” value on IMP-1 is on record as “increases the sensitivity of the protein to proteolysis by trypsin”. Moreover, the FIC came to 0.1289 in [7]; 0.1328 in [8]; 0.5625 in assay [9]; 0.25 in [10]; 0.625 in assay [11]; 0.2539 in [12]. Moreover, in assay [13], the FIC is 0.2539. For the same compound, in the assay on β-lactamases, the “β-lactamase inhibition” value is listed as “good inhibitor”.
